Where “and” joins values, the source holds several entries; their conditions need not be identical. Equal values may be shown once. Calls of active or inactive are those of the source. No cut-off for these calls is given here.
Test system: not listed separately
Assay: Ratio of saluretic activity for Na+ over saluretic activity of K+ in rats after peroral administration of 30 mg/kg of compound
Assay type: functional
Details: route oral

Structure (SMILES) | Ratio
NS(=O)(=O)c1cc(S(=O)(=O)NCCNCC(O)COc2cccc3c2CCC(=O)N3)ccc1Cl (stereo not drawn) | 2.3
NS(=O)(=O)c1cc(N2CCN(CC(O)COc3cccc4c3SCC(=O)N4)CC2)ccc1Cl (stereo not drawn) | 1.5
NS(=O)(=O)c1cc2c(cc1Cl)NCNS2(=O)=O [HYDROCHLOROTHIAZIDE] | 2.2
NS(=O)(=O)c1cc(C(=O)NCCNCC(O)COc2cccc3c2CCC(=O)N3)ccc1Cl (stereo not drawn) | 1.6

Test system: Rattus norvegicus
Assay: Saluretic activity was evaluated for K+ by flame photometry at 8 mg/kg perorally
Assay type: functional
Details: route oral

Structure (SMILES) | Activity [m equiv kg-1]
NS(=O)(=O)c1cc(S(=O)(=O)NCCNCC(O)COc2cccc3c2CCC(=O)N3)ccc1Cl (stereo not drawn) | 0.9
NS(=O)(=O)c1cc(N2CCN(CC(O)COc3cccc4c3SCC(=O)N4)CC2)ccc1Cl (stereo not drawn) | 1.7
NS(=O)(=O)c1cc2c(cc1Cl)NCNS2(=O)=O [HYDROCHLOROTHIAZIDE] | 1.8
NS(=O)(=O)c1cc(C(=O)NCCNCC(O)COc2cccc3c2CCC(=O)N3)ccc1Cl (stereo not drawn) | 1.8

Test system: Rattus norvegicus
Assay: Diuretic activity given as urinary output of 15 mg/kg perorally administered compound in rats
Assay type: functional, Urine
Details: route oral

Structure (SMILES) | Urinary output [mL]
NS(=O)(=O)c1cc(N2CCN(CC(O)COc3cccc4c3SCC(=O)N4)CC2)ccc1Cl (stereo not drawn) | 3.1
NS(=O)(=O)c1cc2c(cc1Cl)NCNS2(=O)=O [HYDROCHLOROTHIAZIDE] | 5.9
NS(=O)(=O)c1cc(C(=O)NCCNCC(O)COc2cccc3c2CCC(=O)N3)ccc1Cl (stereo not drawn) | 2.6

Same assay, conditions: route oral, 15 mg/kg

Structure (SMILES) | Urinary output
NS(=O)(=O)c1cc(S(=O)(=O)NCCNCC(O)COc2cccc3c2CCC(=O)N3)ccc1Cl (stereo not drawn) | 3.1 mL and 4.6 mL

Test system: Rattus norvegicus
Assay: Saluretic activity was evaluated for K+ by flame photometry at 15 mg/kg perorally
Assay type: functional
Details: route oral

Structure (SMILES) | Activity [m equiv kg-1]
NS(=O)(=O)c1cc(S(=O)(=O)NCCNCC(O)COc2cccc3c2CCC(=O)N3)ccc1Cl (stereo not drawn) | 1.2
NS(=O)(=O)c1cc(N2CCN(CC(O)COc3cccc4c3SCC(=O)N4)CC2)ccc1Cl (stereo not drawn) | 1.8
NS(=O)(=O)c1cc2c(cc1Cl)NCNS2(=O)=O [HYDROCHLOROTHIAZIDE] | 1.9
NS(=O)(=O)c1cc(C(=O)NCCNCC(O)COc2cccc3c2CCC(=O)N3)ccc1Cl (stereo not drawn) | 1.5

Test system: Rattus norvegicus
Assay: Saluretic activity was evaluated for Na+ by flame photometry at 15 mg/kg perorally
Assay type: functional
Details: route oral

Structure (SMILES) | Activity [m equiv kg-1]
NS(=O)(=O)c1cc(S(=O)(=O)NCCNCC(O)COc2cccc3c2CCC(=O)N3)ccc1Cl (stereo not drawn) | 2.3
NS(=O)(=O)c1cc(N2CCN(CC(O)COc3cccc4c3SCC(=O)N4)CC2)ccc1Cl (stereo not drawn) | 2.9
NS(=O)(=O)c1cc2c(cc1Cl)NCNS2(=O)=O [HYDROCHLOROTHIAZIDE] | 3.9
NS(=O)(=O)c1cc(C(=O)NCCNCC(O)COc2cccc3c2CCC(=O)N3)ccc1Cl (stereo not drawn) | 2

Test system: Rattus norvegicus
Assay: Diuretic activity given as urinary output of 30 mg/kg perorally administered compound in rats
Assay type: functional, Urine
Details: route oral

Structure (SMILES) | Urinary output [mL]
NS(=O)(=O)c1cc(N2CCN(CC(O)COc3cccc4c3SCC(=O)N4)CC2)ccc1Cl (stereo not drawn) | 3.5
NS(=O)(=O)c1cc2c(cc1Cl)NCNS2(=O)=O [HYDROCHLOROTHIAZIDE] | 7.3
NS(=O)(=O)c1cc(C(=O)NCCNCC(O)COc2cccc3c2CCC(=O)N3)ccc1Cl (stereo not drawn) | 3.3

Test system: Rattus norvegicus
Assay: Diuretic activity given as urinary output of 8 mg/kg perorally administered compound in rats
Assay type: functional, Urine
Details: route oral

Structure (SMILES) | Urinary output [mL]
NS(=O)(=O)c1cc(S(=O)(=O)NCCNCC(O)COc2cccc3c2CCC(=O)N3)ccc1Cl (stereo not drawn) | 2.2
NS(=O)(=O)c1cc(N2CCN(CC(O)COc3cccc4c3SCC(=O)N4)CC2)ccc1Cl (stereo not drawn) | 2.6
NS(=O)(=O)c1cc2c(cc1Cl)NCNS2(=O)=O [HYDROCHLOROTHIAZIDE] | 4
NS(=O)(=O)c1cc(C(=O)NCCNCC(O)COc2cccc3c2CCC(=O)N3)ccc1Cl (stereo not drawn) | 2.8

Test system: not listed separately
Assay: Ratio of saluretic activity for Na+ over saluretic activity of K+ in rats after peroral administration of 15 mg/kg of compound
Assay type: functional
Details: route oral

Structure (SMILES) | Ratio
NS(=O)(=O)c1cc(S(=O)(=O)NCCNCC(O)COc2cccc3c2CCC(=O)N3)ccc1Cl (stereo not drawn) | 1.9
NS(=O)(=O)c1cc(N2CCN(CC(O)COc3cccc4c3SCC(=O)N4)CC2)ccc1Cl (stereo not drawn) | 1.6
NS(=O)(=O)c1cc2c(cc1Cl)NCNS2(=O)=O [HYDROCHLOROTHIAZIDE] | 2
NS(=O)(=O)c1cc(C(=O)NCCNCC(O)COc2cccc3c2CCC(=O)N3)ccc1Cl (stereo not drawn) | 1.3

Test system: Rattus norvegicus
Assay: Saluretic activity was evaluated for Na+ by flame photometry at 30 mg/kg perorally
Assay type: functional
Details: route oral

Structure (SMILES) | Activity [m equiv kg-1]
NS(=O)(=O)c1cc(S(=O)(=O)NCCNCC(O)COc2cccc3c2CCC(=O)N3)ccc1Cl (stereo not drawn) | 3.4
NS(=O)(=O)c1cc(N2CCN(CC(O)COc3cccc4c3SCC(=O)N4)CC2)ccc1Cl (stereo not drawn) | 3
NS(=O)(=O)c1cc2c(cc1Cl)NCNS2(=O)=O [HYDROCHLOROTHIAZIDE] | 5.1
NS(=O)(=O)c1cc(C(=O)NCCNCC(O)COc2cccc3c2CCC(=O)N3)ccc1Cl (stereo not drawn) | 2.9

Test system: Rattus norvegicus
Assay: Saluretic activity was evaluated for Na+ by flame photometry at 8 mg/kg perorally
Assay type: functional
Details: route oral

Structure (SMILES) | Activity [m equiv kg-1]
NS(=O)(=O)c1cc(S(=O)(=O)NCCNCC(O)COc2cccc3c2CCC(=O)N3)ccc1Cl (stereo not drawn) | 1.8
NS(=O)(=O)c1cc(N2CCN(CC(O)COc3cccc4c3SCC(=O)N4)CC2)ccc1Cl (stereo not drawn) | 2.2
NS(=O)(=O)c1cc2c(cc1Cl)NCNS2(=O)=O [HYDROCHLOROTHIAZIDE] | 3.1
NS(=O)(=O)c1cc(C(=O)NCCNCC(O)COc2cccc3c2CCC(=O)N3)ccc1Cl (stereo not drawn) | 2.6

Target: Adrenergic receptor beta (Rattus norvegicus) (UniProt P18090+P10608+P26255)
Details: not given

Structure (SMILES) | ED50
NS(=O)(=O)c1cc(N2CCN(CC(O)COc3cccc4c3SCC(=O)N4)CC2)ccc1Cl (stereo not drawn) | inactive

Test system: not listed separately
Assay: Ratio of saluretic activity for Na+ over saluretic activity of K+ in rats after peroral administration of 8 mg/kg of compound
Assay type: functional
Details: route oral

Structure (SMILES) | Ratio
NS(=O)(=O)c1cc(S(=O)(=O)NCCNCC(O)COc2cccc3c2CCC(=O)N3)ccc1Cl (stereo not drawn) | 2
NS(=O)(=O)c1cc(N2CCN(CC(O)COc3cccc4c3SCC(=O)N4)CC2)ccc1Cl (stereo not drawn) | 1.3
NS(=O)(=O)c1cc2c(cc1Cl)NCNS2(=O)=O [HYDROCHLOROTHIAZIDE] | 1.7
NS(=O)(=O)c1cc(C(=O)NCCNCC(O)COc2cccc3c2CCC(=O)N3)ccc1Cl (stereo not drawn) | 1.4

Test system: Rattus norvegicus
Assay: Saluretic activity was evaluated for K+ by flame photometry at 30 mg/kg perorally
Assay type: functional
Details: route oral

Structure (SMILES) | Activity [m equiv kg-1]
NS(=O)(=O)c1cc(S(=O)(=O)NCCNCC(O)COc2cccc3c2CCC(=O)N3)ccc1Cl (stereo not drawn) | 1.5
NS(=O)(=O)c1cc(N2CCN(CC(O)COc3cccc4c3SCC(=O)N4)CC2)ccc1Cl (stereo not drawn) | 2
NS(=O)(=O)c1cc2c(cc1Cl)NCNS2(=O)=O [HYDROCHLOROTHIAZIDE] | 2.3
NS(=O)(=O)c1cc(C(=O)NCCNCC(O)COc2cccc3c2CCC(=O)N3)ccc1Cl (stereo not drawn) | 1.8
